In the supplement of paper PMC10307832:

Columns and labels:
Test in all cases: relative viability (nuclei count vs DMSO), 5 days (fraction); higher = more cells survive
[1] = compound: Cn1nnc2c(C(N)=O)ncn2c1=O [Temozolomide] + CC(=O)Nc1cccc(-n2c(=O)n(C3CC3)c(=O)c3c(Nc4ccc(I)cc4F)n(C)c(=O)c(C)c32)c1 [Trametinib] (partner 0.02 µM)
In short: (§1)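 One day after seeding in 1536-well plates, lung cancer cell lines were dosed by pin tool. Dosing was either single-drug or a fixed anchor-drug dose plus five library-drug doses (not always all listed) in √10 steps. After 5 days, nuclei were stained in one fix-and-stain step and counted on 4× images, and relative viability is the nuclei count of treated wells over that of vehicle wells, given as the median of duplicate plates.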

Temozolomide + AZD7762 = compound: Cn1nnc2c(C(N)=O)ncn2c1=O [Temozolomide] + NC(=O)Nc1cc(-c2cccc(F)c2)sc1C(=O)N[C@H]1CCCNC1 [AZD7762] (partner 0.2 µM)
In short: as §1

AZD5582 + Decitabine = compound: C[C@@H](C(=O)N[C@@H](C1CCCCC1)C(=O)N2CCC[C@H]2C(=O)N[C@@H]3[C@@H](CC4=CC=CC=C34)OCC#CC#CCO[C@@H]5CC6=CC=CC=C6[C@@H]5NC(=O)[C@@H]7CCCN7C(=O)[C@H](C8CCCCC8)NC(=O)[C@H](C)NC)NC [AZD5582] + Nc1ncn([C@H]2C[C@H](O)[C@@H](CO)O2)c(=O)n1 [Decitabine] (partner 2 µM)
In short: as §1

AZD5582 + Pictilisib = compound: C[C@@H](C(=O)N[C@@H](C1CCCCC1)C(=O)N2CCC[C@H]2C(=O)N[C@@H]3[C@@H](CC4=CC=CC=C34)OCC#CC#CCO[C@@H]5CC6=CC=CC=C6[C@@H]5NC(=O)[C@@H]7CCCN7C(=O)[C@H](C8CCCCC8)NC(=O)[C@H](C)NC)NC [AZD5582] + CS(=O)(=O)N1CCN(Cc2cc3nc(-c4cccc5[nH]ncc45)nc(N4CCOCC4)c3s2)CC1 [Pictilisib] (partner 1 µM)
In short: as §1

Cell Line | relative viability ([1]; first compound 0.2 µM) | relative viability ([1]; first compound 0.6325 µM) | relative viability ([1]; first compound 2 µM) | relative viability ([1]; first compound 6.325 µM) | relative viability ([1]; first compound 20 µM) | relative viability (Temozolomide + AZD7762; first compound 0.2 µM) | relative viability (Temozolomide + AZD7762; first compound 0.6325 µM) | relative viability (Temozolomide + AZD7762; first compound 2 µM) | relative viability (Temozolomide + AZD7762; first compound 6.325 µM) | relative viability (Temozolomide + AZD7762; first compound 20 µM) | relative viability (AZD5582 + Decitabine; first compound 0.001581 µM) | relative viability (AZD5582 + Decitabine; first compound 0.005 µM) | relative viability (AZD5582 + Decitabine; first compound 0.01581 µM) | relative viability (AZD5582 + Decitabine; first compound 0.05 µM) | relative viability (AZD5582 + Pictilisib; first compound 0.001581 µM) | relative viability (AZD5582 + Pictilisib; first compound 0.005 µM) | relative viability (AZD5582 + Pictilisib; first compound 0.01581 µM) | relative viability (AZD5582 + Pictilisib; first compound 0.05 µM)
NCI-H1355 | 0.436 | 0.464 | 0.483 | 0.452 | 0.403 | 0.736 | 0.743 | 0.716 | 0.729 | 0.751 | 0.359 | 0.317 | 0.357 | 0.364 | 0.372 | 0.379 | 0.289 | 0.361
NCI-H1395 | 0.815 | 1.06 | 1.17 | 0.986 | 1.02 | 0.385 | 0.381 | 0.454 | 0.332 | 0.362 | 0.694 | 0.743 | – | 0.782 | 0.601 | 0.698 | – | 0.632
NCI-H1437 | 0.539 | 0.544 | 0.561 | 0.594 | 0.565 | 1.09 | 1.12 | 1.14 | 1.12 | 1.14 | 0.543 | 0.554 | 0.595 | 0.565 | 0.439 | 0.452 | 0.48 | 0.409
NCI-H1651 | 0.677 | 0.834 | 0.818 | 0.77 | 0.84 | 0.392 | 0.403 | 0.478 | 0.465 | 0.419 | 0.572 | 0.571 | 0.559 | 0.654 | 0.616 | 0.656 | 0.539 | 0.723
NCI-H1666 | 0.828 | 0.871 | 0.739 | 0.809 | 0.732 | 0.795 | 0.923 | 0.858 | 0.7 | 0.657 | 0.658 | 0.73 | 0.626 | 0.704 | 0.481 | 0.48 | 0.413 | 0.407
NCI-H1734 | 0.722 | 0.694 | 0.661 | 0.678 | 0.692 | 0.642 | 0.623 | 0.646 | 0.488 | 0.559 | 0.479 | 0.527 | 0.484 | 0.514 | 0.455 | 0.514 | 0.451 | 0.631
NCI-H1755 | 0.81 | 0.761 | 0.718 | 0.664 | 0.549 | 0.487 | 0.396 | 0.485 | 0.385 | 0.638 | 0.709 | 0.761 | 0.694 | 0.725 | 0.349 | 0.424 | 0.306 | 0.398
NCI-H1792 | 0.389 | 0.441 | 0.471 | 0.317 | 0.517 | 0.9 | 0.775 | 0.711 | 0.532 | 0.676 | 0.503 | 0.622 | 0.526 | 0.672 | 0.278 | 0.345 | 0.28 | 0.35
NCI-H1793 | – | 0.463 | 0.465 | 0.335 | 0.414 | – | 0.414 | 0.605 | 0.401 | 0.411 | 0.487 | 0.607 | 0.473 | 0.53 | 0.288 | 0.311 | 0.299 | 0.397
NCI-H1915 | 0.29 | 0.288 | 0.32 | 0.24 | 0.201 | 0.757 | 0.652 | 0.584 | 0.281 | 0.27 | 0.278 | 0.26 | 0.276 | 0.259 | 0.88 | 0.999 | 0.824 | 0.936
NCI-H1944 | 0.367 | 0.402 | 0.435 | 0.426 | 0.362 | 0.432 | 0.505 | 0.391 | 0.441 | 0.696 | 0.432 | 0.485 | 0.494 | 0.457 | 0.344 | 0.389 | 0.297 | 0.389
NCI-H1975 | 0.339 | 0.31 | 0.371 | 0.373 | 0.413 | – | 0.778 | 0.85 | 0.679 | 0.78 | 0.35 | 0.408 | 0.412 | 0.276 | 0.3 | 0.348 | 0.315 | 0.409
NCI-H1993 | 0.429 | 0.61 | 0.473 | 0.455 | 0.552 | 0.678 | 0.764 | 1.03 | 0.692 | 0.71 | 0.634 | 0.7 | 0.603 | 0.613 | 0.916 | 0.807 | 0.796 | 0.859
NCI-H2085 | 0.527 | 0.438 | 0.621 | 0.513 | 0.581 | 0.878 | 1.03 | 0.938 | 0.928 | 0.972 | 0.527 | 0.644 | 0.608 | 0.545 | 0.572 | 0.44 | 0.488 | 0.584
NCI-H2087 | 0.209 | 0.213 | 0.255 | 0.204 | 0.172 | 1.38 | 1.31 | 1.46 | 1.35 | 1.33 | 0.336 | 0.299 | 0.255 | 0.28 | 0.871 | 1.02 | 0.905 | 0.986
NCI-H2126 | 0.561 | 0.588 | 0.624 | 0.555 | 0.623 | 1.05 | 1.02 | 1.02 | 0.959 | 1.11 | 0.53 | 0.577 | 0.581 | 0.59 | 0.505 | 0.556 | 0.436 | 0.533
NCI-H2170 | – | 0.984 | 0.902 | 0.876 | 0.348 | – | 0.951 | 0.733 | 0.466 | 0.295 | 0.489 | 0.474 | 0.478 | 0.504 | 0.3 | 0.352 | 0.28 | 0.319
NCI-H2347 | 0.26 | 0.291 | 0.28 | 0.289 | 0.244 | 0.572 | 0.743 | 0.757 | 0.792 | 0.706 | 0.701 | 0.624 | 0.668 | 0.469 | 0.712 | 0.446 | 0.637 | 0.894
